Results taken from PubChem BioAssay AID1552 (Sanford-Burnham Center for Chemical Genomics, 2009).
Calls of active or inactive are those of the source. The rule behind the calls is not given here.

molecular target: Ubiquitin-conjugating enzyme E2 N (Homo sapiens) (UniProt P61088); assay: UBE2N binders by NMR, biophysical, purified protein (AID 1552); conditions: NMR binding to purified UBE2N
Sequence (P61088 whole entry, looked up): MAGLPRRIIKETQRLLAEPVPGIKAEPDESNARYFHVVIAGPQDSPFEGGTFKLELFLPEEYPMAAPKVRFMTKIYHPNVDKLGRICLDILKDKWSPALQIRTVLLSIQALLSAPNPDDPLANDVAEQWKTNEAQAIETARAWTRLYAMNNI

SMILES | Kd
Cc1nnsc1-c1onc(C)c1C(=O)O | > 4 mM (inactive)
Cc1nn(-c2ccccc2)nc1C(N)=O | > 4 mM (inactive)
N#Cc1cn(CC(=O)N2CCCC2)c2ccccc12 | > 4 mM (inactive)
CN(c1ccc(C(=O)N2CCCCC2)cc1)S(C)(=O)=O | > 4 mM (inactive)
Cc1ccc(-c2nc(-c3cccnc3)no2)cc1 | > 4 mM (inactive)
CC12CCC3C(CC3(C)C)C(C)(CCC1=O)O2 (stereo not drawn) | > 4 mM (inactive)
Cc1onc(-c2ccccc2)c1CN | > 4 mM (inactive)
CN(C)CCNC(CC(=O)Nc1ccccc1)C(=O)O (stereo not drawn) | > 4 mM (inactive)
COc1ccccc1-c1noc(-c2ccncc2)n1 | > 4 mM (inactive)
Nc1cc(=O)[nH]c(=S)n1-c1ccc(F)cc1 | > 4 mM (inactive)
CC(=O)O[C@H]1C[C@@H](OC(C)=O)C(C)(C)C2C[C@@H](O)[C@]3(C)C(CC[C@@]4(C)[C@H](c5ccoc5)OC(=O)[C@H]5O[C@]543)[C@]21C (stereo partly drawn) | > 4 mM (inactive)
OCC1CCCC1O (stereo not drawn) | > 4 mM (inactive)
NC(N)=NCCCCN=C(N)N | > 4 mM (inactive)
C(=C\c1ccccc1)/C=N/n1cnnc1 | > 4 mM (inactive)
Cc1ccc(N2NC(=O)CC2=O)cc1C | > 4 mM (inactive)
COc1cc(OC)c(OC)cc1C=O | > 4 mM (inactive)
NC(=O)CSc1nnc(-c2cccnc2)o1 | > 4 mM (inactive)
CCOC(=O)c1c(C)cc(O)c(C=O)c1O | > 4 mM (inactive)
O=C1N=c2ccccc2=C1c1[nH]c(=S)[nH]c1O | > 4 mM (inactive)
COCCn1cnc2cc(C)c(C)cc21 | > 4 mM (inactive)
O=C(COc1ccccc1)N1CCc2ccccc2C1 | > 4 mM (inactive)
CCOC(=O)N1CCCC1c1cccnc1 (stereo not drawn) | > 4 mM (inactive)

SMILES | Kd
Cc1cc(OC(=O)c2ccco2)c([N+](=O)[O-])c(=O)[nH]1 | > 4 mM (inactive)
Cc1cc(C(=O)NC(C)c2ccncc2)cs1 (stereo not drawn) | > 4 mM (inactive)
CC(=O)Nc1ccc(NC2SC(=O)NC2=O)cc1 (stereo not drawn) | > 4 mM (inactive)
Cc1nnc(NCc2cccnc2)[nH]c1=O | > 4 mM (inactive)
COc1cccc(NC(=O)c2ocnc2C)c1 | > 4 mM (inactive)
c1ccc(CNc2ncnc3nc[nH]c23)nc1 | > 4 mM (inactive)
Cc1nc(-c2cnccn2)sc1C(=O)O | > 4 mM (inactive)
CC(=O)OC1CCC23C(=O)OC45CCC(C6=CC(=O)OC6)C4(C)CCC2C5CCC3(O)C1 (stereo not drawn) | > 4 mM (inactive)
COc1ccc(C2(C)NC(=O)NC2=O)cc1 (stereo not drawn) | > 4 mM (inactive)
CCOC(=O)c1nc2ccccc2c(=O)n1N | > 4 mM (inactive)
COc1ccc2c(c1OC)C(=O)O[C@@H]2[C@@H]1c2cc3c(cc2CCN1C)OCO3 | > 4 mM (inactive)
CC(=O)NC(C)(C)C1CC=C(C)/C(=N\O)C1 (stereo not drawn) | > 4 mM (inactive)
COc1cc(O)c2c(=O)cc(-c3ccc(OC)c(-c4c(O)cc(O)c5c(=O)cc(-c6ccc(O)cc6)oc45)c3)oc2c1 | > 4 mM (inactive)
CN1C2CC[C@@H]1CC(OC(=O)[C@H](CO)c1ccccc1)C2 (stereo partly drawn) | > 4 mM (inactive)
NC(=O)c1ccc(C(N)=O)c(-c2ccccc2)c1 | > 4 mM (inactive)
C/C=C(/C)C(=O)O[C@@H]1[C@H](OC(C)=O)[C@@]2(CO)C(CC1(C)C)C1=CCC3[C@@]4(C)CC[C@H](O[C@@H]5O[C@H](C(=O)O)[C@@H](O[C@@H]6O[C@H](CO)[C@@H](O)[C@H](O)[C@H]6O)[C@H](O)[C@H]5O[C@@H]5O[C@H](CO)[C@@H](O)[C@H](O)[C@H]5O)[C@](C)(CO)C4CC[C@@]3(C)[C@]1(C)C[C@H]2O (stereo partly drawn) | > 4 mM (inactive)
Cc1nnc(Nc2cccnc2)[nH]c1=O | > 4 mM (inactive)
CC(C)=CCOc1c2occc2cc2ccc(=O)oc12 | > 4 mM (inactive)
Cc1nn2c(nc1=O)SCC(c1ccccc1)=N2 | > 4 mM (inactive)
Nc1ccc(S(=O)(=O)N2CCOCC2)cc1 | > 4 mM (inactive)
Cc1nn(C)c(Cl)c1C(O)c1c(C)nn(C)c1Cl | > 4 mM (inactive)
